According to EP4624497A1, “PHOSPHOEN[…] PROBE, PREPARATION METHOD THEREFOR AND APPLICATION THEREOF” (priority 2022, dated 2024):

Tested on: 293 cells with optical probe plasmids expressed in the cytosol
Experiment: dynamic monitoring of phosphoenolpyruvate in the cytosol with the optical probe
Type: cell-based
Conditions: 5 mM Oxalate added, detection continued for 30 minutes, HBSS solution
Experimental: • 1. pCDNA3.1+-based phosphoenolpyruvate optical probe plasmids were transfected into HEK293 by using the transfection reagent Lipofectamine2000 (Invitrogen) and incubated in a cell incubator at 37 °C with 5% CO2. After the exogenous gene was fully expressed for 24~36 hours, the fluorescence detection was performed. • 2. After induction of expression, adherent HEK293 cells were washed three times with PBS and placed in HBSS solution for fluorescence microscopy and microplate reader assays, respectively.
In this example, different localization signal peptides were used to fuse to the optical probe 254/255-TtPFK- I253K/Q254L/R255L/G256F-cpYFP-Y1S which was localized in different organelles.
Thirty-six hours after transfection of 293 cells with optical probe plasmids expressed in the cytosol, the cells were rinsed with PBS, placed in an HBSS solution, and the change in the ratio of the fluorescence intensity at an excitation of 420 nm and an emission of 528 nm to that at an excitation of 485 nm and an emission of 528 nm was detected in a 30-minute period.

O=C(O)C(=O)O [Oxalate]
485/420 ratio: up to 3.5 times the initial value
